For assay [1], the target named is T1, Lycopene beta-cyclase (Pantoea ananas) (UniProt P21687).
T1 sequence (whole entry): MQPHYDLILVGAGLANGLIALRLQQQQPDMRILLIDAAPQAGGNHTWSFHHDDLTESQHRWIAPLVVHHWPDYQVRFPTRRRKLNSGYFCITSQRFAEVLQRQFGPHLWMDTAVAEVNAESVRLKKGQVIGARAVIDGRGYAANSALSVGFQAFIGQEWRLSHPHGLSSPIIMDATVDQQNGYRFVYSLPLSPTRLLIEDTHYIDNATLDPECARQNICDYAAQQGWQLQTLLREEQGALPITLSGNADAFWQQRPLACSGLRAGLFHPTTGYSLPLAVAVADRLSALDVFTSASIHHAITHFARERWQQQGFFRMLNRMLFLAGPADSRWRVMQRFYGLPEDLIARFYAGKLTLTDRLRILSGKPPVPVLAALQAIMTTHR
Description: Inhibition of Pantoea ananatis lycopene cyclase assessed as residual enzyme activity at 10 mM.

The next assay concerns the target T2, Lycopene beta-cyclase (Pantoea ananas, UniProt P21687).
T2 sequence (P21687 whole entry): T1 sequence (whole entry)
Description: Inhibition of Pantoea ananatis lycopene cyclase. The settings on record: read-out: I50.

Assay [2] concerns the target T1, Lycopene beta-cyclase (Pantoea ananas). The assay can be described thus: Inhibition of Pantoea ananatis lycopene cyclase assessed as residual enzyme activity at 0.5 mM.

Each structure is given as a SMILES string. pIC50: −log10 of the molar value.

Consider `Cc1cc(OC(=O)N2CCCCC2)c(C(C)C)cc1[N+](C)(C)C`, for which the Activity in assay [1] came out at 36%.

Take `CN1CCC[C@H]1c1cccnc1` [NICOTINE]: at Lycopene beta-cyclase, the pIC50 was 5.32. Besides, the Activity in assay [1] was 64%.

`CCN(CC)CCOc1ccc(C)cc1`: the pIC50 on Lycopene beta-cyclase was 4.92.

On to `O=CC(=O)c1ccccc1`, for which the Activity in assay [2] is 92%.

Consider `NC(=O)CI`, for which, in assay [2], the Activity came to 87%.

As to `CCN1C(=O)C=CC1=O`, the Activity in assay [2] was determined as 83%.

Turning to `CC(=O)C(C)=O`, the Activity in assay [2] came to 90%.

The values are drawn from ChEMBL document CHEMBL3045626, “Interaction of 2-(4-Methylphenoxy)triethylamine and Related Compounds with Its Herbicide Target in the Carotenoid Biosynthetic Pathway” (J Pestic Sci, 1998).
